Results reported in patent US8614246B2, “Indole derivatives for treating neurodegenerative diseases” (Centre National de la Recherche Scientifique (CNRS), priority 2009, dated 2013).

How the values were obtained:
[1] = tested on: dopaminergic neurons (TH+ neurons) in primary cultures of ventral mesencephalon; experiment: Neuroprotection: counting of remaining TH+ neurons in primary cultures of ventral mesencephalon (spontaneous death of dopaminergic neurons); assay type: cell-based; conditions: Product 10 nM, 8 days culture, rat embryo ventral mesencephalon; untreated control = 100
Description: Dissection. Dissection consists of extracting embryos from the uterus of a rat after fifteen days of gestation. The brain of each embryo is then dissected under magnifying binoculars in order to extract the ventral mesencephalus.
Seeding. Mesencephalons are grouped in a flask containing 2 mL of L15 medium and then mechanically dissociated (30 repeat operations), 5 mL of L15 medium are added. The suspension is allowed to stand for 8 minutes. The 5 mL float is then recovered in a new flask and the cells are dissociated again (30 repeat operations). 5 mL of L15 is added again and the suspension is left to stand for 8 minutes. The 5 mL float is added to the previous float. The cells thus extracted are then centrifuged for 5 minutes at 1000 rpm^−1. The cell sediment is dissolved in a Neurobasal medium supplemented with 1% of B27, 1% of glutamine and 1% of a mixture of penicillin and streptomycin. The cells are then seeded at an appropriate dilution (0.6 embryos per well in 24-well plates and 0.4 per well in 48-well plates). The cultures are incubated at 37° C. in a wet atmosphere enriched with 5% CO2 in 24-well or 48-well plates.
Treatment. After 24 hours, two-thirds of the medium in each well is replaced by a new medium enriched with the product to be tested at the appropriate dilution. The medium is replaced in the same way after 4 days of culture.
Immunohistochemistry. After 8 days culture, the cells are fixed by a solution of 4% formaldehyde and then washed three times with PBS. The cells are then submitted to anti-tyrosine hydroxylase (TH) immunohistochemistry, developed by a secondary antibody coupled to a fluorophore emitting in the red (Cy3).
Analyses. Neuroprotection is evaluated by counting positive TH neurons with 10 fields per well directly under an inverted fluorescence microscope, reported as a percentage of the untreated control. Experiments are done on three wells per condition. Three independent experiments are done under these conditions. The total neuritic length per cell is calculated using Explora Nova's Neurite Outgrowth software on 60 to 100 neurons photographed independently per condition.
Primary cultures of ventral mesencephalon of rat embryos after 15.5 days of gestation under conditions causing spontaneous death of dopaminergic neurons, are maintained in the presence or absence of the compounds to be tested for 8 days. After fixing, the cultures are submitted to immunocytochemistry directed against tyrosine hydroxylase, a specific marker of dopaminergic neurons.
The neuroprotective potential of each compound is then estimated by counting the number of remaining neurons (TH^+ neurons) under a fluorescence microscope. The results for the different treatments are expressed as a percentage of the number of neurons remaining relative to untreated cultures (Control).
All experiments were done by comparison with a positive control, dibutyryl-AMP cyclic (db-AMPc) (Mourlevat S. et al. Mol. Pharmacol. 2003, 64 (3), 578-586).

[2] = tested on: reactive oxygen species (ROS) in neurones of ventral mesencephalon cultures; experiment: Cellular test with dihydrorhodamine 123 (DHR-123); assay type: cell-based, rat; conditions: compounds 10 nM for eight days, 50 μM DHR-123 30 minutes; control = 100; Trolox at 10 μM per FIG. 1
Description: Dihydrorhodamine 123 or DHR123 is used as an indicator of reactive oxygen species (ROS). It is uncharged and not fluorescent and passes passively through the cellular membrane before being oxidised in contact with free radicals, into rhodamine 123 emitting green fluorescence.
The quantity of intracellular ROS is reduced when the cells are treated by an anti-oxidant. This reduction results in a quantifiable decay in emitted fluorescence in the presence of DHR123.
In order to conclude the role of the anti-oxidant capacity of compounds according to the invention in the observed neuroprotectrive activity, the cultures were placed strictly under the same conditions as for the neuroprotection/neuritogenesis test. Thus, the cultures were kept for eight days in the presence of a concentration of 10 nM of each of the tested tryptaminic derivatives. On the 8th day in vitro (DIV 8), 50 μM of DHR-123 (Sigma) was added and the cells were incubated for 30 minutes at 37° C. They were then washed three times, treated once again by compounds according to the invention and placed in a medium without any phenol red. Living fluorescent neurones that were immediately photographed can be observed, the fluorescence density per neurone being quantified under an inverted fluorescence microscope by an image analysis software.

[3] = Test with ABTS (anti-oxidant capacity, hydroxyl radicals generated by Fenton's reaction); assay type: biochemical; conditions: 30 minutes at ambient temperature, range 10 nM to 1 mM, read-out: IC50 ± SEM (concentration at which 50% of hydroxyl radicals have been reduced) (converted)
Source text: ABTS or 2,2′-azino-bis-(3-ethylbenzthiazoline-6-sulfonic) acid is a coloured indicator of the presence of hydroxyl radicals in solution. The attack of a hydroxyl radical on ABTS generates the formation of an ATBS^+. cation radical (Equation 1). This coloured entity makes the absorbance (Abs) of the solution equal to 450 nm. ABTS+HO. ? ABTS^+. +HO^− Equation 1
During the test, hydroxyl radicals are generated by Fenton's reaction in the presence of iron and hydrogen peroxide (Equation 2) H2O2+Fe^2+ ? HO. +HO^−+Fe^3+ Equation 2
When a radical trap or antioxidant is present in solution, competition with ABTS is set up for reduction of hydroxyl radicals, which reduces the absorbance (Abs) at 450 nm.
The percentage of hydroxyl radicals converted into hydroxyl ions (% conversion) by the compound of interest may be calculated using Formula 1: […]
The anti-oxidant capacity of a compound may then be expressed in the form of IC50 that reflects the concentration at which 50% of hydroxyl radicals have been reduced by the tested compound.
Thus, the compounds to be tested and Trolox® were solubilised in ethanol so as to obtain solutions at 1 mM. We used cascade dilutions to obtain a concentration range varying from 1 mM to 10 nM. 90 μL of a 1:1 water-ethanol mixture was then added onto an ELISA 96-well plate, followed by 15 μL of an aqueous solution of ABTS at 1 mM, 15 μL of an aqueous solution of Fe2SO4 at 0.5 mM, 15 μL of each compound to be tested at different concentrations, and then 15 μl of an aqueous solution of hydrogen peroxide at 100 mM. The mixtures thus obtained were stirred at ambient temperature sheltered from air for 30 minutes, and the value of the absorbance at […] was then measured. The capacity of each compound to reduce hydroxyl radicals is determined by the reduction in absorbance at 450 nm, the control solution being composed of pure ethanol. Therefore, the ABTS test was made in comparison with Trolox®. The same ranges from 10 nm to 1 mM of indoles 1a, 1c, 1g, 1i, 2a, 4c, 2g, 2h and 2i were tested.

## CCCCCCCCCCCCCCCCNCCc1c[nH]c2ccccc12 [Compound 2c, N-(2-(1H-indol-3-yl)ethyl)hexadecan-1-amine]
[1]
  TH+ neurons, % relative to control ± SEM: 131.9 ± 4.7 %
[2]
  IF/neurone (%) (fluorescence intensity per neurone): 47.8 ± 4.7 %
[3]
  IC50: 620 µM
